# Assay results taken from US20070112056A1, “Stable modifications of tegaserod hydrogen maleate” (priority 2003, published 2007).
# Key:
# Format in all cases: physicochemical
# [1] = Stability of the crystal form in the presence of water
# Solubility = test: Solubility
# [2] = Stability of the crystal form when exposed to heat (DSC thermogram)
# Protocol: Characteristic for the modification A is the thermogram in differential scanning calorimetry (DSC). It has an endothermic melting peak at about 190° C. The melting enthalpy of the endothermic signal Is 130 J/g±5 J/g. The measurement Is carried out on a Perkin Elmer DSC 7 in a crimped pan with a heating rate of 10 K/minute., The typical sample quantity is about 2 mg. As a typical distinguishing feature compared with the modification B and the acetone solvate, ethanol solvate, the thermogram of the modification A has no further thermal signal (see Table 1a below):
# It has an endothermic peak in addition to the one at about 190° C., at 97° C. and melting/crystallization signals at about 181° C. […] The measurement is done as described above.
# [3] = Conversion between crystal forms / thermodynamic stability
# [4] = compared to modification B and the ethanol, acetone solvate
smiles,measurement,setting,value
CCCCCNC(=N)N/N=C/c1c[nH]c2ccc(OC)cc12.O=C(O)/C=C\C(=O)O [solvate with acetone],conversion of crystal form by equilibration with water,[1]; equilibration with water,can be transformed into modification A
"CCCCCNC(=N)N/N=C/c1c[nH]c2ccc(OC)cc12.O=C(O)/C=C\C(=O)O [tegaserod hydrogen maleate, 3-(5-methox-1H-indol-3-yl-methylene)-N-pentylcarbazimidamide hydrogen maleate]",solubility,Solubility,poor
CCCCCNC(=N)N/N=C/c1c[nH]c2ccc(OC)cc12.O=C(O)/C=C\C(=O)O [modification B],conversion of crystal form when heating is applied,"[2]; DSC, heating rate 10 K/minute",converts into modification A
same,conversion of crystal form,"[3]; under certain conditions, e.g. heat or water containing organic solvents",completely or partly be converted into modification A
"CCCCCNC(=N)N/N=C/c1c[nH]c2ccc(OC)cc12.O=C(O)/C=C\C(=O)O [modification A, modification A of the hydrogen maleate salt of 3-(5-methoxy-1H-indol-3-yl-methylene)-N-pentylcarbazimidamide]",stability when exposed to heat,[2]; [4],more stable when exposed to heat
same,stability in the presence of water,[1]; [4],more stable In the presence of water
same,thermodynamic stability,[3]; relative to modification B,thermodynamically more stable than modification B
